Laboratory results as given in patent US6737383B1, “Herbicidal oxadiazolidines” (priority 1999, dated 2004).

How the values were obtained:
Italian ryegrass = experiment: Test E Italian ryegrass; format: in vivo, Lolium multiflorum; settings: Preemergence; for I. Ryegrass plant response rating (0 to 100 scale): Rate 250 g/ha
blackgrass [1] = experiment: Test E blackgrass; format: in vivo, Alopecurus myosuroides; settings: Preemergence; for Blackgrass plant response rating (0 to 100 scale): Rate 250 g/ha
surinam grass = experiment: Test B pre/postemergence surinam grass; format: in vivo, Brachiaria decumbens
Procedure, shortened: (§1)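 Herbicidal effect was estimated by eye on a ten-point control scale after plants spent twelve to sixteen days in a greenhouse following soil or foliar treatment. Foliar sprays targeted plants at one to four leaves; all doses were formulated in a non-phytotoxic solvent with surfactant.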

winter wheat [2] = experiment: Test E winter wheat; format: in vivo, Triticum aestivum; settings: Preemergence; for Wheat (winter) plant response rating (0 to 100 scale): Rate 250 g/ha
winter wheat [3] = experiment: Test E winter wheat; format: in vivo, Triticum aestivum; settings: Postemergence; for Plant response rating, Wheat (winter): 0 to 100 scale
Procedure, shortened: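 Visually scored herbicidal effect relative to untreated plants, taken ~21 to 28 days post-application; compound in solvent with surfactant; postemergence sprays at the 1- to 4-leaf stage.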

blackgrass [4] = experiment: Test B pre/postemergence blackgrass; format: in vivo, Alopecurus myosuroides
Procedure, shortened: as §1

sugar beet = experiment: Test B pre/postemergence sugar beet; format: in vivo, Beta vulgaris
Procedure, shortened: as §1

winter barley = experiment: Test E winter barley; format: in vivo, Hordeum vulgare; settings: Preemergence; for Barley (winter) plant response rating (0 to 100 scale): Rate 250 g/ha
bamyardgrass = experiment: Test B flood test barnyardgrass; format: in vivo, Echinochloa crus-galli
Procedure, shortened: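 Each value is a visual injury score relative to controls, with 10 meaning complete control and 0 no effect. Evaluation took place twelve to sixteen days after the 2-leaf-stage plants were treated and kept in the greenhouse.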

wild oat = experiment: Test E wild oat; format: in vivo, Avena fatua; settings: Preemergence; for Wild oat plant response rating (0 to 100 scale): Rate 250 g/ha
green foxtail = experiment: Test E green foxtail; format: in vivo, Setaria viridis; settings: Preemergence; for Green foxtail plant response rating (0 to 100 scale): Rate 250 g/ha
[5] = Rate 500 g/ha, 0 to 100 scale where 0 is no effect and 100 is complete control
[6] = Rate 1000 g/ha, 0 to 100 scale where 0 is no effect and 100 is complete control
[7] = Postemergence, Rate 125 g/ha, scale of 0 to 10 where 0 is no effect and 10 is complete control
[8] = Postemergence, Rate 1000 g/ha, scale 0 to 10 (0 no effect, 10 complete control)
[9] = Preemergence, Rate 125 g/ha, 0 is no effect, 10 is complete control
[10] = Preemergence, Rate 250 g/ha, scale 0 to 10, 0 is no effect, 10 is complete control
[11] = Preemergence, Rate 500 g/ha, scale 0 to 10 (0 no effect, 10 complete control)
[12] = Rate 250 g/ha, Postemergence, scale 0 to 10, 0 is no effect, 10 is complete control
[13] = Rate 500 g/ha, Postemergence, scale 0 to 10, 0 no effect, 10 complete control
[14] = Rate 1000 g/ha, Preemergence, scale 0 to 10 (0 no effect, 10 complete control)
[15] = Rate 500 g/ha, 0 is no effect, 100 is complete control
[16] = Rate 500 g/ha, Postemergence, scale 0 to 10
[17] = Rate 125 g/ha, 0 to 100 scale (0 no effect, 100 complete control)
[18] = Preemergence, Rate 62 g/ha, scale of 0 to 10 where 0 is no effect and 10 is complete control
[19] = Preemergence, Rate 500 g/ha, scale of 0 to 10 where 0 is no effect and 10 is complete control
[20] = Rate 62 g/ha, Postemergence, scale of 0 to 10 where 0 is no effect and 10 is complete control
[21] = Rate 125 g/ha, Preemergence, scale of 0 to 10 where 0 is no effect and 10 is complete control
[22] = Preemergence, Rate 250 g/ha, scale of 0 to 10 where 0 is no effect and 10 is complete control
[23] = Rate 125 g/ha, Postemergence, scale 0 to 10

SMILES: Cc1ccccc1-n1c(=O)on(C(=O)N(c2c(F)cccc2F)C(C)C)c1=O [Compound 176]
- I. Ryegrass plant response rating (0 to 100 scale) (Italian ryegrass): 50
- Plant response rating, I. Ryegrass (Italian ryegrass; [5]): 60
- Plant response rating, I. Ryegrass (Italian ryegrass; [6]): 98
- Blackgrass plant response rating (0 to 100 scale) (blackgrass [1]): 40
- Plant response rating, Blackgrass (blackgrass [1]; [5]): 50
- Plant response rating, Blackgrass (blackgrass [1]; [6]): 75
- B. signalgrass plant response rating (surinam grass; [7]): 0
- B. signalgrass plant response rating (surinam grass; [8]): 2
- B. signalgrass plant response rating (0 to 10 scale) (surinam grass; [9]): 0
- B. signalgrass plant response rating (surinam grass; [10]): 0
- B. signalgrass plant response rating (surinam grass; [11]): 0
- Plant response rating, B. signalgrass (surinam grass; [12]): 0
- B. signalgrass plant response rating (surinam grass; [13]): 0
- Plant response rating, B. signalgrass (surinam grass; [14]): 3
- Wheat (winter) plant response rating (0 to 100 scale) (winter wheat [2]): 20
- Plant response rating, Wheat (winter) (winter wheat [2]; [5]): 30
- Plant response rating, Wheat (winter) (winter wheat [2]; [6]): 50
- Plant response rating, Wheat (winter) (winter wheat [3]; Rate 1000 g/ha, 0 is no effect and 100 is complete control): 40
- Plant response rating, Wheat (winter) (winter wheat [3]; [15]): 50
- Blackgrass plant response rating (blackgrass [4]; [7]): 0
- Blackgrass plant response rating (blackgrass [4]; [8]): 7
- Blackgrass plant response rating (0 to 10 scale) (blackgrass [4]; [9]): 0
- Blackgrass plant response rating (blackgrass [4]; [10]): 2
- Blackgrass plant response rating (blackgrass [4]; [11]): 3
- Plant response rating, Blackgrass (blackgrass [4]; [12]): 0
- Blackgrass plant response rating (blackgrass [4]; [16]): 3
- Plant response rating, Blackgrass (blackgrass [4]; [14]): 7
- Sugarbeets plant response rating (sugar beet; [7]): 0
- Sugarbeets plant response rating (sugar beet; [8]): 4
- Sugarbeets plant response rating (0 to 10 scale) (sugar beet; [9]): 0
- Sugarbeets plant response rating (sugar beet; [10]): 0
- Sugarbeets plant response rating (sugar beet; [11]): 2
- Plant response rating, Sugarbeets (sugar beet; [12]): 0
- Sugarbeets plant response rating (sugar beet; [16]): 0
- Plant response rating, Sugarbeets (sugar beet; [14]): 6
- Barley (winter) plant response rating (0 to 100 scale) (winter barley): 30
- Plant response rating, Barley (winter) (winter barley; [5]): 40
- Plant response rating, Barley (winter) (winter barley; [6]): 50
- Barnyardgrass plant response rating (bamyardgrass; Postemergence (flood test species), Rate 125 g/ha, scale of 0 to 10 where 0 is no effect and 10 is complete control): 0
- Barnyardgrass plant response rating (bamyardgrass; [8]): 0
- Plant response rating, Barnyardgrass (bamyardgrass; Rate 250 g/ha, Postemergence (flood test), scale 0 to 10, 0 is no effect, 10 is complete control): 0
- Barnyardgrass plant response rating (bamyardgrass; Rate 500 g/ha, listed under Postemergence (flood test species), scale 0 to 10): 0
- Wild oat plant response rating (0 to 100 scale) (wild oat): 30
- Plant response rating, Wild oat (wild oat; [5]): 50
- Plant response rating, Wild oat (wild oat; [6]): 50
- Green foxtail plant response rating (0 to 100 scale) (green foxtail): 50
- Plant response rating, Green foxtail (green foxtail; [5]): 70
- Plant response rating, Green foxtail (green foxtail; [6]): 100

SMILES: CC(C)N(C(=O)n1oc(=O)n(CCC2OCCO2)c1=O)c1ccc(F)cc1 [Compound 219]
- Plant response rating, I. Ryegrass (Italian ryegrass; [17]): 30
- I. Ryegrass plant response rating (0 to 100 scale) (Italian ryegrass): 55
- Plant response rating, I. Ryegrass (Italian ryegrass; [5]): 70
- Plant response rating, Blackgrass (blackgrass [1]; [17]): 0
- Blackgrass plant response rating (0 to 100 scale) (blackgrass [1]): 20
- Plant response rating, Blackgrass (blackgrass [1]; [5]): 70
- B. signalgrass plant response rating (surinam grass; [18]): 4
- B. signalgrass plant response rating (surinam grass; [10]): 9
- Plant response rating, B. signalgrass (surinam grass; [19]): 9
- B. signalgrass plant response rating (surinam grass; [20]): 0
- B. signalgrass plant response rating (surinam grass; Rate 125 g/ha, Postemergence, scale 0 (no effect) to 10 (complete control)): 2
- B. signalgrass plant response rating (surinam grass; [21]): 6
- Plant response rating (0 to 10; 0 is no effect, 10 is complete control), B. signalgrass (surinam grass; Rate 250 g/ha, Postemergence): 5
- B. signalgrass plant response rating (surinam grass; [13]): 8
- Plant response rating, Wheat (winter) (winter wheat [2]; [17]): 35
- Wheat (winter) plant response rating (0 to 100 scale) (winter wheat [2]): 60
- Plant response rating, Wheat (winter) (winter wheat [2]; [5]): 60
- Plant response rating, Wheat (winter) (winter wheat [3]; Rate 125 g/ha, 0 is no effect, 100 is complete control): 20
- Wheat (winter) plant response rating (winter wheat [3]; Rate 250 g/ha, 0 to 100 scale where 0 is no effect and 100 is complete control): 50
- Plant response rating, Wheat (winter) (winter wheat [3]; [15]): 60
- Blackgrass plant response rating (blackgrass [4]; [18]): 7
- Blackgrass plant response rating (blackgrass [4]; [22]): 10
- Plant response rating, Blackgrass (blackgrass [4]; [19]): 10
- Blackgrass plant response rating (blackgrass [4]; [20]): 5
- Blackgrass plant response rating (blackgrass [4]; [23]): 7
- Blackgrass plant response rating (blackgrass [4]; [21]): 10
- Plant response rating (0 to 10; 0 is no effect, 10 is complete control), Blackgrass (blackgrass [4]; Rate 250 g/ha, Postemergence): 8
- Blackgrass plant response rating (blackgrass [4]; [13]): 8
- Sugarbeets plant response rating (sugar beet; [18]): 3
- Sugarbeets plant response rating (sugar beet; [22]): 4
- Plant response rating, Sugarbeets (sugar beet; [19]): 8
- Sugarbeets plant response rating (sugar beet; [20]): 4
- Sugarbeets plant response rating (sugar beet; [23]): 4
- Sugarbeets plant response rating (sugar beet; [21]): 4
- Plant response rating (0 to 10; 0 is no effect, 10 is complete control), Sugarbeets (sugar beet; Rate 250 g/ha, Postemergence): 4
- Sugarbeets plant response rating (sugar beet; [13]): 7
- Plant response rating, Barley (winter) (winter barley; [17]): 20
- Barley (winter) plant response rating (0 to 100 scale) (winter barley): 30
- Plant response rating, Barley (winter) (winter barley; [5]): 70
- Barnyardgrass plant response rating (bamyardgrass; Rate 62 g/ha, headed Pre-emergence (flood test species), scale 0 to 10 (0 no effect, 10 complete control)): 0
- Barnyardgrass plant response rating (bamyardgrass; Rate 125 g/ha, Pre-emergence, flood test species, scale 0 to 10 where 0 is no effect and 10 is complete control): 0
- Barnyardgrass plant response rating (bamyardgrass; Rate 250 g/ha, Pre-emergence, flood-test species, scale 0 to 10, 0 is no effect, 10 is complete control): 8
- Barnyardgrass plant response rating (bamyardgrass; Rate 500 g/ha, Pre-emergence, flood test species, scale 0 to 10 (0 no effect, 10 complete control)): 9
- Plant response rating, Wild oat (wild oat; [17]): 30
- Wild oat plant response rating (0 to 100 scale) (wild oat): 50
- Plant response rating, Wild oat (wild oat; [5]): 60
- Plant response rating, Green foxtail (green foxtail; [17]): 65
- Green foxtail plant response rating (0 to 100 scale) (green foxtail): 60
- Plant response rating, Green foxtail (green foxtail; [5]): 70
